The species named for data set [1] is Rattus norvegicus. The data set is described as follows: Compound was evaluated for the pA2 values against Dopamine (DA)-induced contraction of isolated rat vas deferens. The note with it: read-out: pA2 (converted). It counts as functional, organism-based.
The species named for data set [2] is Rattus norvegicus. The data set is described as follows: Compound was evaluated for the pA2 values against Norepinephrine (NE)-induced contraction of isolated rat vas deferens. It counts as functional. Conditions: read-out: pA2 (converted).
The species named for data set [3] is Mus musculus. The data set is described as follows: Compound was evaluated for the effective dose that causes lethality in aggregated mice (group toxicity antagonism). The note with it: in vivo. It counts as organism-based.
Data set [4] has as its target D(1A) dopamine receptor (Rattus norvegicus, UniProt P18901). Briefly: Compound was evaluated for its affinity (pKi) to inhibit [3H]SCH-23390 binding to the dopamine receptor D1.
Data set [5] has as its target D(2) dopamine receptor (Rattus norvegicus, UniProt P61169). The data set is described as follows: Compound was evaluated for its affinity (pKi) to inhibit [3H]spiperone binding to the dopamine receptor D2.

pKi: −log10 of the molar value.

D(1A) dopamine receptor, sequence (P18901 whole entry): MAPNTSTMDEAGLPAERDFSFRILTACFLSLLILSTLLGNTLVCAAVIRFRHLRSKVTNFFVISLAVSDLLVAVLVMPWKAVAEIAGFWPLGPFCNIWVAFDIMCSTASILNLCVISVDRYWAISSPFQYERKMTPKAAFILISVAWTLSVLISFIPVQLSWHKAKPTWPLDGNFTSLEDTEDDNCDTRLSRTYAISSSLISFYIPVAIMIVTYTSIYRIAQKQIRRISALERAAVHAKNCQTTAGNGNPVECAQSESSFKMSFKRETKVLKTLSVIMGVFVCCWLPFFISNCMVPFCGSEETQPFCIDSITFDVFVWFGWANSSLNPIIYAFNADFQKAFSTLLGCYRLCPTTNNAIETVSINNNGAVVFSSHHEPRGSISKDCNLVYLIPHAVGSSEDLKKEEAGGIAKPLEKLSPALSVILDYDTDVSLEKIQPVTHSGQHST
D(2) dopamine receptor, sequence (P61169 whole entry): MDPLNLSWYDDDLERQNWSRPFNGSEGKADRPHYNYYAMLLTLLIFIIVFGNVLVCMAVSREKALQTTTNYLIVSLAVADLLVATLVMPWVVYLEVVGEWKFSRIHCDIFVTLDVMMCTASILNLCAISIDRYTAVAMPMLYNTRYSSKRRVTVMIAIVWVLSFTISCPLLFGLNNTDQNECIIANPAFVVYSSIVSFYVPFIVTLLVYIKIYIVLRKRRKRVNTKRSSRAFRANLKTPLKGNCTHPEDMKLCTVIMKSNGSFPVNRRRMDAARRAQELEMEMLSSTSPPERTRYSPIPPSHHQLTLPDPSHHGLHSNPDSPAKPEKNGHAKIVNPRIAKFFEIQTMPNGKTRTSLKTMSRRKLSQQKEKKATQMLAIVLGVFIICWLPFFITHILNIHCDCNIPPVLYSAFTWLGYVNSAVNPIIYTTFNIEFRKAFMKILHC

As to `O=C1CC(CN2CCC(C(=O)c3ccc(F)cc3)CC2)Cc2ccccc21` (centres undefined), the results for the Kb in data set [1] and in data set [2] were 35.5 nM and 83.2 nM, respectively. This compound came in with an ED50 in data set [3] of 0.055 mg/kg. This compound also gave a pKi in data set [4] of 6.49.
Taken in the same sequence, the figures for `COc1ccccc1N1CCN(CC2CC(=O)c3ccccc3C2)CC1` (centres undefined) were 66.1 nM, 174 nM, 0.349 mg/kg and 5.87.
As for `O=C(CCCN1CCN(CC2CC(=O)c3ccccc3C2)CC1)c1ccc(F)cc1` (centres undefined), the Kb is 53.7 nM in data set [1] and 178 nM in data set [2]. The same compound gave a negative logarithm of the Ki (pKi) in data set [4] of 6.42.
In the case of `O=C(CCCN1CCN(CC2CC(=O)c3ccc(F)cc3C2)CC1)c1ccc(F)cc1` (centres undefined), the pKi in data set [5] is 7.11; in data set [4], 6.04. In data set [3], this compound showed a 50% effective dose (ED50) of 0.053 mg/kg.
In the case of `O=C1CC(CN2CCC(O)(c3ccccc3)CC2)Cc2ccccc21` (centres undefined), the pKi in data set [5] is 7.13; in data set [4], 6.13.
On to `O=C(CCCN1CCC(O)(c2ccc(Cl)cc2)CC1)c1ccc(F)cc1` [HALOPERIDOL], for which the figures for the Kb in data set [1] and in data set [2] were 39.8 nM and 102 nM, respectively. Moreover, the ED50 in data set [3] turned out to be 0.02 mg/kg.

These data come from ChEMBL document CHEMBL1125591, “Synthesis and antidopaminergic activity of some 3-(aminomethyl)tetralones as analogues of butyrophenone” (J Med Chem, 1991).
